As a reminder, the IC50 is the concentration needed to halve the response being measured. For orientation: logP means a log measure of how a compound divides between an organic and an aqueous phase. A lower logP goes with a more hydrophilic compound.

These results are taken from patent US20170129911A1, “COMPLEXES COMPRISING A PLATINUM COMPOUND AND AN IMMUNE CHECKPOINT INHIBITOR AND RELATED METHODS” (Massachusetts Institute of Technology, priority 2015, published 2017).

The subject of data set [1] is A2780 human ovarian cancer cells. In words: Cytotoxicity MTT assay, A2780. The format is cell-based. As to conditions: 72 h. From the text:
(§1) Ovarian carcinoma cells, NIH:OVCAR3, A2780, A2780/CP70, and SKOV3 were purchased from the American Type Culture Collection (ATCC, Rockville Md.). Peripheral blood mononuclear cells (PBMCs) of two different donors were obtained from Zen Bio Inc. (Research Triangle, NC). Cancer cell lines were maintained in Roswell Park Memorial Institute (RPMI) medium (glutamine-free supplemented with 10% fetal bovine serum, Atlanta Biologics, Atlanta Ga.) and 1% penicillin/streptomycin. PBMCs were thawed in specialized medium (10% […], 40% RPMI and 50% FBS) and subsequently cultured in RPMI containing 20% FBS. For T-cell proliferation experiments, PBMCs were stimulated by the addition of phytohemagglutinin (PHA-P). All cells were grown at 310 K in a humidified atmosphere containing 5% CO2. D-1-methyltryptophan, L-tryptophan and L-kynurenine were purchased from Sigma Aldrich.
(§2) The colorimetric MTT assay was used to determine the toxicity of 1, 2, and cisplatin. Cells (2×10^3) were seeded in each well of a 96-well plate. […] Cisplatin was prepared as a 5 mM solution in PBS and diluted using media. 1, 2 and C16—Pt-Suc-NHC2H4OH were prepared as 10 mM solution in DMSO and diluted using media. […] The absorbance of the solution wells was read at 570 and 650 nm. Absorbance values were normalized to DMSO-containing control wells and plotted as concentration of test compound versus % cell viability. […]
(In general: Tetrazolium dyes change colour on reduction, which living cells bring about.)

Data set [2] is described as follows: Water-octanol partition coefficient (Log P), shake-flask method and GFAAS. To be noted: octanol/PBS.
Data set [3] deals with NIH:OVCAR3 human ovarian cancer cells. In words: Cytotoxicity MTT assay, NIH:OVCAR3. Format: cell-based.
Description: as §1, §2

The test system of data set [4] is SKOV3 human ovarian cancer cells. In words: Cytotoxicity MTT assay, SKOV3. Format: cell-based.
Description: as §1, §2

Data set [5] relates to A2780/CP70 human ovarian cancer cells. In words: Cytotoxicity MTT assay, A2780/CP70. Format: cell-based. To be noted: A2780/CP70, MTT, 72 h.
Description: as §1
The colorimetric MTT assay was used to determine the toxicity of 1, 2, and cisplatin. Cells (2×10^3) were seeded in each well of a 96-well plate. […] Cisplatin was prepared as a 5 mM solution in PBS and diluted using media. 1, 2 and C16—Pt-Suc-NHC2H4OH were prepared as 10 mM solution in DMSO and diluted using media. The final volume amount of DMSO in each well was 0.5%, and which was present in the untreated control as well. Cells co-incubated with cisplatin and (D)-1-MT were first pre-treated with 1 mM (D)-1-MT. […] The RPMI/MTT, mixture was aspirated and 100 μL of DMSO was added to dissolve the resulting purple formazan crystals. The absorbance of the solution wells was read at 570 and 650 nm. Absorbance values were normalized to DMSO-containing control wells and plotted as concentration of test compound versus % cell viability. IC50 values were interpolated from the resulting dose dependent curves. The reported IC50 values are the average of at least three independent experiments, each of which consisted of six replicates per concentration level.

Another data set relates to human IDO in SKOV3 cells. In words: Immunoblotting and qRT-PCR of IDO expression in SKOV3 cells. Format: cell-based. The procedure: Total RNA was isolated with the Qiagen RNAeasy RNA isolation kit (Hilden, Germany) and cDNA was synthesized with the Applied Biosystems reverse-transcription-kit (Foster City, Calif., USA). qRT-PCR was performed in a Light cycler 480 II thermo cycler with SYBR Green PCR Mastermix (Roche). All primers were separated by at least one intron on the genomic DNA to exclude its amplification. PCR reactions were checked by including no-RT controls, by omission of templates, and by melting curves. Standard curves were generated for each gene. Relative quantification of gene expression was determined by comparison of threshold values. All samples were analyzed in duplicate at two different dilutions. All results were normalized to GAPDH.
Cells were washed with PBS, scraped into SDS-PAGE loading buffer (64 mM Tris-HCl (pH 6.8)/9.6% glycerol/2% SDS/5% β-mercaptoethanol/0.01% Bromophenol Blue), and incubated at 95° C. for 10 min. […] Membranes were blocked in 5% (w/v) bovine serum albumin in PBST (PBS/0.1% Tween 20) and incubated with the appropriate primary antibodies (Cell Signalling Technology and Santa Cruz). After incubation with horseradish peroxidase-conjugated secondary antibodies (Cell Signalling Technology), 1:1000, immuno complexes were detected with the ECL detection reagent (BioRad) and analyzed using UVP biospectrum imaging system fitted with a chemiluminescence filter.
In general terms: In western blotting, separated proteins are transferred to a membrane and probed.

The conditions of data set [6]: reported values used for comparison with human blood stability; cited from earlier work.
Data set [7] is described as follows: Tolerability/toxicity in mice. Format: in vivo.
Data set [8] in a line: Whole human blood stability test. The format is in vitro ADME. On the procedure:
To a volume of 0.8 mL fresh whole human blood (Innovative Research, Novi, Mich.) was added 24 μL of a DMSO solution of 2 (2.0 mM), resulting in a final concentration of 60 μM. After 5 sec of vortexing, a 100 μL aliquot of the blood sample (0 h time point) was immediately transferred to a new tube containing 300 μL of octanol, and the remaining […] of blood was incubated at 37° C. with rotation (1100 rpm). The blood-octanol mixture was vortexed for 2 min at R.T. and then centrifuged to separate the phases. The isolated octanol extract was diluted with methanol for GFAAS measurement. At varying time points (1 h, 2 h, 3 h, 5 h, and 7 h), a 100 μL aliquot was removed from the incubating blood and extracted as described above. For the 7 h sample, analytical HPLC was employed to confirm the integrity of the Pt compound. A standard of 2 and an octanol extract from blank whole human blood were used for comparison.

Data set [9] concerns HCT 116 P53+/+ colorectal cell line. In words: MTT anticancer activity, HCT116 p53 +/+. The format is cell-based. As to conditions: 48 h. The procedure: (§3) An MTT assay was run to measure the compounds anti cancer activity. The two colorectal cell lines HCT 116 P53+/+ and HCT 116 P53−/− were plated on 96 well plates. After adhesion to the plate, each individual compound was added to three rows, each consisting of 8 wells with a 3 fold dilution in concentration per well beginning at 25 μM. After 48 hours of incubation, the MTT reagent was added to the plates, which were then incubated for another 4 hours. The well contents were then dissolved in 200 μL of DMSO, and the plates were read for UV absorption at 570 nm and 650 nm. The collected data was then analyzed to produce the sigmoidal curves, which were then used to interpolate the IC50 values of each compounds. (See Table 3).

The test system of data set [10] is HCT 116 P53−/− colorectal cell line. Nature of the data set: MTT anticancer activity, HCT116 p53 −/−. The format is cell-based. As to conditions: 48 h. On the procedure:
as §3

For another data set, the system named is genomic DNA. In words: DNA platination experiments. Format: cell-based, human. As to conditions: SKOV3, 10 μM, 17 h. The procedure: To gain further insight into the mode of action was studied of 1 and 2, the subcellular distribution of platinum. SKOV3 cells were incubated with the drug candidates (5 μM) for 17 h, using cisplatin as a control. The platinum content was measured by using GFAAS.
These cells were then treated with the compounds (10 μM) in fresh medium (9 mL) and subsequently incubated for 17 h at 37° C. The medium was aspirated and the cells were washed with PBS (3×8 mL), harvested by trypsinization (1 mL), and washed with 2 mL of PBS. The cell suspension was centrifuged at 2000 rpm for 5 min at 4° C. The cell pellet was suspended in DNAzol (1 mL, genomic DNA isolation reagent,). The DNA was precipitated with pure ethanol (0.5 mL), washed with 75% ethanol (0.75 mL×3), and re-dissolved in 500 μL of 8 mM NaOH. The DNA concentration was determined by UV-Vis spectroscopy and the platinum content was quantified by GFAAS. All experiments were carried out in triplicate.

The next data set concerns SKOV3 cells. Nature of the data set: Cell cycle analysis by flow cytometry (DNA content). For orientation: In flow cytometry, cells or beads pass a laser one at a time.

Consider `Cn1cc(C[C@@H](N)C(=O)O)c2ccccc21` [(D)-1-MT, D-1-methyltryptophan], for which the IC50 is 833 ± 7.53 µM in data set [1] (Homo sapiens); 1200 ± 80 µM in data set [3] (Homo sapiens, OVCAR-3, 72 h); 1918 ± 8.4 µM in data set [4] (Homo sapiens, SK-OV-3, 72 h); 1040 ± 63.9 µM in [5] (Homo sapiens). The molecule further registered a logP at 3 h in [2] of -2.98 ± 0.15.
Take `CCCCCCCCCCCCCCCCNC(=O)[O][Pt]([NH2])([NH2])([Cl])([Cl])[O]C(=O)CCC(=O)O` [C16—Pt-Suc, reference compound]: in the data set with human IDO in SKOV3 cells (immunoblotting and qRT-PCR), the “IDO protein expression (IDO inhibition)” value is “did not show IDO inhibition”.
For `CC(=O)[O][Pt]([NH2])([Cl])([Cl])([NH]C1CCCCC1)[O]C(C)=O` [satraplatin], the “t1/2 (reported)” value in [6] is on record as 6 min.
`Cn1cc(C[C@@H](N)C(=O)[O][Pt]([NH2])([NH2])([Cl])([Cl])[O]C(=O)[C@H](N)Cc2cn(C)c3ccccc23)c2ccccc21` (mixture of isomers) [Compound 1, cis,cis,trans-[Pt(NH3)2Cl2(O2C-D-1-MT)2]]: the “toxicity / tolerance in mice” value in data set [7] was “low toxicity in mice”. The stability in blood result in data set [8] is reported as “stable in blood”. Besides, in “physchem”, the logP at 3 h was -0.21 ± 0.08. Further, the “concentration at which IDO protein expression is blocked” value with human IDO in SKOV3 cells (immunoblotting) is 100 µM.
On to `O=C(O)C(=O)O.[NH-][C@@H]1CCCC[C@H]1[NH-].[Pt+2]` [Oxaliplatin], for which the IC50 in [9] was 1.32 ± 1.48 µM; in [10], 6.55 ± 1.78 µM.
As to [cis-Pt(NH3)2Cl2] [Cisplatin], the IC50 was determined as 0.7 ± 0.2 µM in [1], 4.1 ± 0.2 µM in [3] (72 h), 3.7 ± 0.28 µM in data set [4] (72 h) and 10.4 ± 0.6 µM in [5]. Besides, the DNA platination in the data set with genomic DNA is recorded as 409±54 Pt adducts/10^4 nucleotides. For the same molecule, the “cell cycle arrest phase” value in the data set with SKOV3 cells is “G2/M arrest”. The “t1/2 (reported)” value in [6] is 21.6 min.
